The conditions of series [1]: diabetics accompanied with hepatocirrhosis; cited from earlier work.
The subject of another series is α-glucosidase. The settings on record: cited from earlier work.
The nature of series [2]: Blood ammonia level-lowering effect in rats on high-protein diet. The series is classed as in vivo, rat (male SD). The following applies: for Blood ammonia level: 7 days, mean ± S.D., 5 animals. As for the experimental part:
The blood ammonia level-lowering effect of N-(1,3-dihydroxy-2-propyl)valiolamine in rats
Male SD rats aged […] were fed either on a regular diet or a high-protein powder diet containing 61% of casein for 7 days. N-(1,3-dihydroxy-2-propyl)valiolamine (hereinafter referred to shortly as AO-128) was added to the high-protein diet at final concentrations of 10 and 50 ppm. The animals had free access to the diets and the mean daily food intake was approximately 18 g/day. On the 7th day, laparotomy was performed under ether anesthesia and the blood was collected from the abdominal aorta. The blood ammonia level was estimated using an assay kit, a product of WAKO.

Series [3] can be described thus: Acute oral toxicity in mice. The settings on record: mouse, in vivo, mice (NRMI).
Series [4] can be described thus: Acute oral toxicity in rats. The following applies: rat, in vivo, rats (Wistar).

The values below come from patent US4996236A, “Therapeutic composition for hepatic encephalopathy” (Takeda Chemical Industries, Ltd., priority 1988, dated 1991).

With `C[C@H]1O[C@H](O[C@H]2[C@H](O)[C@@H](O)[C@@H](O[C@H]3[C@H](O)[C@@H](O)C(O)O[C@@H]3CO)O[C@@H]2CO)[C@H](O)[C@@H](O)[C@@H]1N[C@H]1C=C(CO)[C@@H](O)[C@H](O)[C@H]1O` (stereo partly shown) [acarbose], the “effect on blood ammonia level” value in series [1] is given as “lowers the blood ammonia level”. The “α-glucosidase inhibitory activity” value with α-glucosidase is reported as “α-glucosidase inhibitor”.

For orientation: LD50 means the dose expected to kill half of the subjects tested. High values mean a less toxic substance, low ones a more toxic substance. On to `OCC(CO)N[C@H]1C[C@](O)(CO)[C@@H](O)[C@H](O)[C@H]1O` [AO-128, N-(1,3-dihydroxy-2-propyl)valiolamine], for which the Blood ammonia level stood at 88 ± 7 µg/dL in series [2] (10 ppm AO-128 in high-protein diet (61% casein)) and 90 ± 8 µg/dL in series [2] (50 ppm AO-128 in high-protein diet (61% casein)). Further, in series [2] (AO-128 treated high-protein diet group, 10 and 50 ppm), the “blood ammonia level versus high-protein diet control group” value is “overtly lower blood ammonia level than the high-protein diet control group”. For the same molecule, the LD50 in series [3] was 14700 to 21500 mg/kg; in series [4], approximately 20000 mg/kg.
